The values below come from ChEMBL document CHEMBL4420078, “Sos1 inhibitors for cancer treatment” (2016).

Experiment [1] concerns the target T1, Son of sevenless homolog 1 (Mus musculus) (UniProt Q62245).
T1 sequence (whole entry): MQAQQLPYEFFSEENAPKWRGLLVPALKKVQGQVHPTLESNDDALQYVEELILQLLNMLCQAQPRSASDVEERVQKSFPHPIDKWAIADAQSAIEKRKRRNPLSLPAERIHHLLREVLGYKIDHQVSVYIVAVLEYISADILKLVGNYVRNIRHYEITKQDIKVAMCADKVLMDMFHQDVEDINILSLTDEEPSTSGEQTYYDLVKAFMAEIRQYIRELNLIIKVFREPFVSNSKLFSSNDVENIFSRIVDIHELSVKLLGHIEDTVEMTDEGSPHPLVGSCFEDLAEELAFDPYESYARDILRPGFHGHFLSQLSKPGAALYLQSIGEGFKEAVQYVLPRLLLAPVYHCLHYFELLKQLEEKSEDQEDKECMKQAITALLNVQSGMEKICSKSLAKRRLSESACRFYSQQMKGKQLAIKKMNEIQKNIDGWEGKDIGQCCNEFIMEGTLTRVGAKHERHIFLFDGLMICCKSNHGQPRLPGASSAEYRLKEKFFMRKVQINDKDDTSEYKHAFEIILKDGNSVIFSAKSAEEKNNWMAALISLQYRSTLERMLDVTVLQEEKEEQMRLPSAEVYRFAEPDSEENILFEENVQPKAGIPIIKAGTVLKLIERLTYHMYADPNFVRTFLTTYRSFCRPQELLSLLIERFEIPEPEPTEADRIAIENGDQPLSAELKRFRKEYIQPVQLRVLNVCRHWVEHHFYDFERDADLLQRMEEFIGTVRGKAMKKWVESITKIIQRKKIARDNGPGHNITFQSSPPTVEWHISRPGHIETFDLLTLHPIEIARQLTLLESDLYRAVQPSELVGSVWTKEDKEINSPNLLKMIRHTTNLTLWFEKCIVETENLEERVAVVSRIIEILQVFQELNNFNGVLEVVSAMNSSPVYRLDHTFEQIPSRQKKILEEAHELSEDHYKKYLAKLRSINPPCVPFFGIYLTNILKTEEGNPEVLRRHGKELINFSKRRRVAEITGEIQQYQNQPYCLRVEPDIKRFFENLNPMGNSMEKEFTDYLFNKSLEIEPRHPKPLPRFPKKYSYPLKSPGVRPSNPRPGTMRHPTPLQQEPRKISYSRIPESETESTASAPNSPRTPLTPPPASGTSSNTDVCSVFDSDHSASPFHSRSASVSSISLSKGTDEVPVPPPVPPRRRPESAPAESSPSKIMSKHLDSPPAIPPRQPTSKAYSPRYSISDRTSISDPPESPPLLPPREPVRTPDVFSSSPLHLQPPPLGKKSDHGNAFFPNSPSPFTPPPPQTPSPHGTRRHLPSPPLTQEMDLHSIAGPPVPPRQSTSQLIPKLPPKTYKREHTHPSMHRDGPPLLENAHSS
The experiment in a line: Inhibition of SOS1 in overnight serum-starved mouse NIH/3T3 cells assessed as reduction in ERK1/2 phosphorylation at 20 to 40 uM pre-incubated for 16 hrs before EGF stimulation for 5 mins by Western blot analysis.

Experiment [2] concerns the target T1, Son of sevenless homolog 1 (Mus musculus). The experiment in a line: Inhibition of SOS1 in overnight serum-starved mouse NIH/3T3 cells assessed as reduction in Akt phosphorylation at 20 to 40 uM pre-incubated for 2 hrs before EGF stimulation for 5 mins by Western blot analysis. Background: In western blotting, separated proteins are transferred to a membrane and probed.

In experiment [3] the target is T2, Son of sevenless homolog 1 (Homo sapiens, UniProt Q07889).
T2 sequence (Q07889 whole entry): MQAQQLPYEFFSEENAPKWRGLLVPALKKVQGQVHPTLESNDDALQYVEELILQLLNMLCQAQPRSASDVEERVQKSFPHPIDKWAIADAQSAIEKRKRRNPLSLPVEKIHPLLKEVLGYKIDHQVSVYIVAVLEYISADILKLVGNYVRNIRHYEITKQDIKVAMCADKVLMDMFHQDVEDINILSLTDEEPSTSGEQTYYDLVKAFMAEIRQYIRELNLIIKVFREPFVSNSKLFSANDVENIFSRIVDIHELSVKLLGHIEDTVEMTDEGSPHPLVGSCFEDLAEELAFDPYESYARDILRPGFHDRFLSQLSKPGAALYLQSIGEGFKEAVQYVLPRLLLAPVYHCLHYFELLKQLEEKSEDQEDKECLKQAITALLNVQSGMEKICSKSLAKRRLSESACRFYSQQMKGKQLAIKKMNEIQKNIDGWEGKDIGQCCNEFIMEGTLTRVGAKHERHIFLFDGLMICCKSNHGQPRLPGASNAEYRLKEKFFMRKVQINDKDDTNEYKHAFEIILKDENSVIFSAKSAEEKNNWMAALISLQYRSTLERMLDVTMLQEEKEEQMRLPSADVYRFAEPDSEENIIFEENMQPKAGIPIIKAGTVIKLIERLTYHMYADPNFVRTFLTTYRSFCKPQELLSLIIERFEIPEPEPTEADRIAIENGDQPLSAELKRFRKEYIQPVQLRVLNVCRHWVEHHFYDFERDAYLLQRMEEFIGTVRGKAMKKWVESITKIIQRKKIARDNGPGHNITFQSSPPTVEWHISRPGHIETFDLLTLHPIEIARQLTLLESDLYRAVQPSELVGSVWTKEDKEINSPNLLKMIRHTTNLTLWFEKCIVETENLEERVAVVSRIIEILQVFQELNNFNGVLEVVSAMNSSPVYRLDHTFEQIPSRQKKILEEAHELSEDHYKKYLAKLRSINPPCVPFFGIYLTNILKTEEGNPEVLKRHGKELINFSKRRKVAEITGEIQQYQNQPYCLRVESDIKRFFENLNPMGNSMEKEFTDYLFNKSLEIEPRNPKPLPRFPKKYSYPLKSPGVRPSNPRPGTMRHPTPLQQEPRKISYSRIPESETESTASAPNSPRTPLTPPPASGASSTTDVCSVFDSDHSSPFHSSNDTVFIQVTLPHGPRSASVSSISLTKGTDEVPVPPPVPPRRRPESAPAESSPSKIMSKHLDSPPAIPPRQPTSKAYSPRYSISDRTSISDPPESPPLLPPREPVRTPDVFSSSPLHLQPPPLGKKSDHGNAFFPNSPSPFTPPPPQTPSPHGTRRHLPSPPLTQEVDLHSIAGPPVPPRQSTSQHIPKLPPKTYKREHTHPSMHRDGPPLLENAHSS
Briefly: Allosteric binding affinity to N-terminal 6x-His-tagged recombinant human SOS1 catalytic domain (residues 564 to 1049 residues) expressed in Escherichia coli BL21 (DE3) by label-free microscale thermophoresis analysis. On the technique in general: In MST a laser heats a spot of the sample, and binding alters the fluorescence response.

The target in experiment [4] is T3, Son of sevenless homolog 1 (Homo sapiens) (UniProt Q07889).
T3 sequence (whole entry): T2 sequence (Q07889 whole entry)
Briefly: Inhibition of SOS1 in overnight serum-starved human MIAPaCa2 cells assessed as reduction in EGFR phosphorylation at 20 to 40 uM by Western blotting analysis.

The target in experiment [5] is T1, Son of sevenless homolog 1 (Mus musculus). The experiment in a line: Inhibition of SOS1 in overnight serum-starved mouse NIH/3T3 cells assessed as effect on R-Ras-GTP levels at 20 to 50 uM pre-incubated for 2 hrs before EGF stimulation for 5 mins by GST-Raf1 effector domain pulldown assay.

Active and inactive are the calls of the source. The calls are words filed in the database; no cut-off is given here.

In the case of `O=C(O)c1ccccc1-c1c2ccc3cc(O)ccc3c2oc2c1ccc1cc(=O)ccc12`, the inhibition result in experiment [1] was “Active”. Regarding `O=C(O)c1cc2c3c(c1)C1C=CCC1C(c1ccccc1Cl)N3CC1CC=CC21` (stereo not given), the inhibition entry in experiment [2] is “Active”.

For `O=[N+]([O-])c1ccccc1/C=C/C=C1c2ccccc2-c2ccccc21`, the dissociation constant (Kd) (usually the constant that tells how readily two partners part at equilibrium) in experiment [3] amounted to 14.2 µM. Besides, the inhibition result in experiment [4] was “inactive”. In the case of `O=C1Oc2ccccc2C(=O)/C1=C/N1C(=O)/C(=C/c2ccc([N+](=O)[O-])cc2)SC1=S`, the inhibition result in experiment [5] was “Active”.
